{"source": "patent US7253212B2", "about": "“Retinol derivative and cosmetic composition comprising the same” (Coreana Cosmetics Co., Ltd., priority 2002, dated 2007)", "key": {"Human normal fibroblasts": {"system": "Human normal fibroblasts", "experiment": "Effect on collagen biosynthesis (procollagen type C-peptide kit)", "assay_type": "cell-based", "settings": "48 hours treatment", "method": "Human normal fibroblasts (ATCC) were inoculated (2×10^4 cells/well) on 96-well microplate containing DMEM supplemented with FBS and incubated for 24 hours at 37° C. After incubation, the medium in microplate was replaced with fresh DMEM without serum comprising the derivative of this invention, retinol or ascorbic acid and then additional incubation for 48 hours was carried out. Control was not treated with any of the compounds described above. Following incubation, each well was rinsed, fresh DMEM without serum was supplied and then additional incubation for 24 hours was performed. Then, procollagen type C-peptide obtained from the supernatant of each well was measured using a kit purchased from Takara Co. (Japan) and the measured values were converted to ng/2×10^4 cells, which indicate the amount of collagen newly generated."}, "tyrosinase": {"system": "tyrosinase", "experiment": "Inhibitory effect on tyrosinase activity", "assay_type": "biochemical", "method": "A tyrosinase used herein was purchased from Sigma (U.S.A.). Tyrosine as substrate was used as a solution (0.1 mg/ml) dissolved in 0.05 M sodium phosphate buffer (pH 6.8).\n0.5 ml of tyrosine solution was placed in a test tube and 0.5 ml of sample solution to be evaluated was added. The test tube was allowed to stand in incubator for 10 min. at 37° C. and then 0.5 ml of tyrosinase (200 U/ml) was added. The reaction was carried out for 10 min at 37° C. As a control group, 0.5 ml of buffer solution was added instead of the sample to be evaluated. The reaction was quenched by placing the test tube on ice and the absorbance of the resultant was measured at 475 nm with spectrophotometer. The inhibitory effect on tyrosinase activity was determined by the equation: inhibition rate on tyrosinase activity (%)=100−{(absorbance of sample/absorbance of control)×100}"}, "[1]": {"experiment": "Scavenging effect on free radical (DPPH)", "settings": "30 min, absorbance 520 nm", "method": "Evaluation of scavenging effect on free radical was performed using DPPH (1,1-diphenyl-2-picryl-hydrazyl, Sigma-Aldrich). 100 μl of each of the substances (the derivative of this invention, retinol and ascorbic acid) diluted to a suitable concentration and 100 μl of 400 μM DPPH solution were consequently added to a 96-well microplate and agitation was performed, followed by reaction for 30 min. at room temperature. Then, absorbance at 520 nm was measured using spectrophotometer. Control contains 100 μl of ethanol in place of the substance to be tested. The scavenging effect on free radical was calculated as following formula: scavenging effect on free radical (%)=100−{(absorbance of sample solution/absorbance of control)×100}"}}, "data": [{"compound": "CC1=C(/C=C/C(C)=C/C=C/C(C)=C/COC(=O)COC2=C(O)C(=O)OC2C(O)CO)C(C)(C)CCC1", "note": "(stereo not drawn) [Derivative of this invention]", "values": [{"measurement": "Amount of Collagen Newly Generated", "setting": "Human normal fibroblasts; addition amount 50 μg", "value": 215, "unit": "ng/2 × 10^4 cells"}, {"measurement": "Amount of Collagen Newly Generated", "setting": "Human normal fibroblasts; addition amount 100 μg", "value": 290, "unit": "ng/2 × 10^4 cells"}, {"measurement": "Amount of Collagen Newly Generated", "setting": "Human normal fibroblasts; addition amount 200 μg", "value": 349, "unit": "ng/2 × 10^4 cells"}, {"measurement": "Inhibition rate on tyrosinase activity (%)", "setting": "tyrosinase; sample conc. 10 μg/ml", "value": 8.1, "unit": "%"}, {"measurement": "Inhibition rate on tyrosinase activity (%)", "setting": "tyrosinase; sample conc. 20 μg/ml", "value": 10.7, "unit": "%"}, {"measurement": "Inhibition rate on tyrosinase activity (%)", "setting": "tyrosinase; sample conc. 50 μg/ml", "value": 13.8, "unit": "%"}, {"measurement": "Inhibition rate on tyrosinase activity (%)", "setting": "tyrosinase; sample conc. 100 μg/ml", "value": 32.9, "unit": "%"}, {"measurement": "Inhibition rate on tyrosinase activity (%)", "setting": "tyrosinase; sample conc. 200 μg/ml", "value": 47.1, "unit": "%"}, {"measurement": "Inhibition rate on tyrosinase activity (%)", "setting": "tyrosinase; sample conc. 500 μg/ml", "value": 78.8, "unit": "%"}, {"measurement": "Scavenging effect on free radical (%)", "setting": "[1]; concentration 0.5 mM", "value": 95.7, "unit": "%"}, {"measurement": "Scavenging effect on free radical (%)", "setting": "[1]; concentration 1 mM", "value": 96.4, "unit": "%"}]}, {"compound": "O=C1O[C@H]([C@@H](O)CO)C(O)=C1O", "note": "[L-ascorbic acid]", "values": [{"measurement": "Amount of Collagen Newly Generated", "setting": "Human normal fibroblasts; addition amount 50 μg", "value": 198, "unit": "ng/2 × 10^4 cells"}, {"measurement": "Amount of Collagen Newly Generated", "setting": "Human normal fibroblasts; addition amount 100 μg", "value": 267, "unit": "ng/2 × 10^4 cells"}, {"measurement": "Amount of Collagen Newly Generated", "setting": "Human normal fibroblasts; addition amount 200 μg", "value": 314, "unit": "ng/2 × 10^4 cells"}, {"measurement": "Inhibition rate on tyrosinase activity (%)", "setting": "tyrosinase; sample conc. 10 μg/ml", "value": 5.1, "unit": "%"}, {"measurement": "Inhibition rate on tyrosinase activity (%)", "setting": "tyrosinase; sample conc. 20 μg/ml", "value": 9.8, "unit": "%"}, {"measurement": "Inhibition rate on tyrosinase activity (%)", "setting": "tyrosinase; sample conc. 50 μg/ml", "value": 13.2, "unit": "%"}, {"measurement": "Inhibition rate on tyrosinase activity (%)", "setting": "tyrosinase; sample conc. 100 μg/ml", "value": 22.5, "unit": "%"}, {"measurement": "Inhibition rate on tyrosinase activity (%)", "setting": "tyrosinase; sample conc. 200 μg/ml", "value": 34.8, "unit": "%"}, {"measurement": "Inhibition rate on tyrosinase activity (%)", "setting": "tyrosinase; sample conc. 500 μg/ml", "value": 62.4, "unit": "%"}, {"measurement": "Scavenging effect on free radical (%)", "setting": "[1]; concentration 0.5 mM", "value": 91.2, "unit": "%"}, {"measurement": "Scavenging effect on free radical (%)", "setting": "[1]; concentration 1 mM", "value": 91.9, "unit": "%"}]}, {"compound": "CC1=C(/C=C/C(C)=C/C=C/C(C)=C/CO)C(C)(C)CCC1", "note": "[Retinol]", "values": [{"measurement": "Amount of Collagen Newly Generated", "setting": "Human normal fibroblasts; addition amount 50 μg", "value": 174, "unit": "ng/2 × 10^4 cells"}, {"measurement": "Amount of Collagen Newly Generated", "setting": "Human normal fibroblasts; addition amount 100 μg", "value": 233, "unit": "ng/2 × 10^4 cells"}, {"measurement": "Amount of Collagen Newly Generated", "setting": "Human normal fibroblasts; addition amount 200 μg", "value": 286, "unit": "ng/2 × 10^4 cells"}, {"measurement": "Inhibition rate on tyrosinase activity (%)", "setting": "tyrosinase; sample conc. 10 μg/ml", "value": 0.6, "unit": "%"}, {"measurement": "Inhibition rate on tyrosinase activity (%)", "setting": "tyrosinase; sample conc. 20 μg/ml", "value": 1.1, "unit": "%"}, {"measurement": "Inhibition rate on tyrosinase activity (%)", "setting": "tyrosinase; sample conc. 50 μg/ml", "value": 3.2, "unit": "%"}, {"measurement": "Inhibition rate on tyrosinase activity (%)", "setting": "tyrosinase; sample conc. 100 μg/ml", "value": 3.9, "unit": "%"}, {"measurement": "Inhibition rate on tyrosinase activity (%)", "setting": "tyrosinase; sample conc. 200 μg/ml", "value": 5.6, "unit": "%"}, {"measurement": "Inhibition rate on tyrosinase activity (%)", "setting": "tyrosinase; sample conc. 500 μg/ml", "value": 9.2, "unit": "%"}, {"measurement": "Scavenging effect on free radical (%)", "setting": "[1]; concentration 0.5 mM", "value": 0.4, "unit": "%"}, {"measurement": "Scavenging effect on free radical (%)", "setting": "[1]; concentration 1 mM", "value": 1.6, "unit": "%"}]}]}
